Structures can show the parent of a compound that is named as a salt. Calls of active or inactive are those of the source. The calls are words filed in the database; no cut-off is given here.
How the values were obtained:
[1] = Cytotoxicity against human THP1 cells assessed as inhibition of cell growth after 48 hrs by sulforhodamine B assay; format: functional, cell-based; details: THP-1, 48 h
[2] = Cytotoxicity against human PC3 cells assessed as inhibition of cell growth after 48 hrs by sulforhodamine B assay; format: functional, cell-based; details: PC-3, 48 h
[3] = Cytotoxicity against human HCT116 cells assessed as inhibition of cell growth after 48 hrs by sulforhodamine B assay; format: functional, cell-based; details: HCT-116, 48 h
A549 = test: Cytotoxicity against human A549 cells assessed as inhibition of cell growth after 48 hrs by sulforhodamine B assay; format: functional, cell-based; details: A549, 48 h
CHO [4] = test: Induction of apoptosis in CHO cells assessed as necrotic cells at 10 uM after 24 hrs by Annexin V-FITC/propidium iodide staining based flow cytometry (reference value: 4.3%); format: cell-based, Cricetulus griseus; details: chinese hamster
PC-3 [5] = test: Induction of apoptosis in human PC3 cells assessed as plasma membrane blebbing at IC50 incubated for 12 hrs by DAPI staining based confocal microscopy; format: functional, cell-based
[6] = Cell cycle arrest in human PC3 cells assessed as accumulation at subG1 phase at 15 uM after 12 hrs by propidium iodide staining based flow cytometry (reference value: 29.6%); format: functional; details: PC-3
CHO [7] = test: Induction of apoptosis in CHO cells assessed as early apoptotic cells at 10 uM after 24 hrs by Annexin V-FITC/propidium iodide staining based flow cytometry (reference value: 3%); format: cell-based, Cricetulus griseus; details: chinese hamster
PC-3 [8] = test: Induction of apoptosis in human PC3 cells assessed as cell rounding at IC50 incubated for 12 hrs by DAPI staining based confocal microscopy; format: functional
[9] = Cell cycle arrest in human PC3 cells assessed as accumulation at subG1 phase at 10 uM after 12 hrs by propidium iodide staining based flow cytometry (reference value: 29.6%); format: functional; details: PC-3
PC-3 [10] = test: Induction of apoptosis in human PC3 cells assessed as plasma membrane blebbing at IC50 incubated for 12 hrs by scanning electron microscopy; format: functional, cell-based
PC-3 [11] = test: Induction of apoptosis in human PC3 cells assessed as smoothening of cell surface at IC50 incubated for 6 hrs by scanning electron microscopy; format: functional, cell-based
PC-3 [12] = test: Induction of apoptosis in human PC3 cells assessed as smoothening of cell surface at IC50 incubated for 12 hrs by scanning electron microscopy; format: functional, cell-based
[13] = Cell cycle arrest in human PC3 cells assessed as accumulation at subG1 phase after 12 hrs by propidium iodide staining based flow cytometry; format: functional; details: PC-3
PC-3 [14] = test: Induction of apoptosis in human PC3 cells assessed as cell shrinkage at IC50 incubated for 12 hrs by DAPI staining based confocal microscopy; format: functional
[15] = Induction of apoptosis in CHO cells assessed as viable cells at 10 uM after 24 hrs by Annexin V-FITC/propidium iodide staining based flow cytometry (reference value: 91.8%); format: cell-based, Cricetulus griseus; details: chinese hamster, read-out: Activity
CHO [16] = test: Induction of apoptosis in CHO cells assessed as late apoptotic cells at 10 uM after 24 hrs by Annexin V-FITC/propidium iodide staining based flow cytometry (reference value: 1%); format: cell-based, Cricetulus griseus; details: chinese hamster
PC-3 [17] = test: Induction of apoptosis in human PC3 cells assessed as decrease in cell size at IC50 incubated for 12 hrs by scanning electron microscopy; format: functional, cell-based
PC-3 [18] = test: Induction of apoptosis in human PC3 cells assessed as mitochondrial membrane potential depolarization after 12 hrs using rhodamine 123 by spectrofluorimetric analysis; format: functional, cell-based
[19] = Cell cycle arrest in human PC3 cells assessed as accumulation at subG1 phase at 5 uM after 12 hrs by propidium iodide staining based flow cytometry (reference value: 29.6%); format: functional; details: PC-3
PC-3 [20] = test: Induction of apoptosis in human PC3 cells assessed as plasma membrane blebbing at IC50 incubated for 6 hrs by scanning electron microscopy; format: functional, cell-based
PC-3 [21] = test: Induction of apoptosis in human PC3 cells assessed as increase in intracellular ROS level after 24 hrs using DCFH-DA by spectrofluorimetric analysis; format: functional, cell-based
[22] = Cell cycle arrest in human PC3 cells assessed as accumulation at subG1 phase at 2 uM after 12 hrs by propidium iodide staining based flow cytometry (reference value: 29.6%); format: functional; details: PC-3

CC1(C)CCC[C@@]2(C)C1=C[C@H]1C(=O)O[C@H](c3ccccc3F)[C@H]12
IC50 [1]: > 50 µM
IC50 [2]: > 50 µM
IC50 [3]: > 50 µM
IC50 (A549): > 50 µM

CC1(C)CCC[C@@]2(C)C1=C[C@H]1C(=O)O[C@H](c3ccccc3Cl)[C@H]12
IC50 [1]: > 50 µM
IC50 [2]: > 50 µM
IC50 [3]: > 50 µM
IC50 (A549): 40 µM

O=c1[nH]cc(F)c(=O)[nH]1 [FLUOROURACIL]
IC50 (A549): 0.5 µM

CC1(C)CCC[C@@]2(C)C1=C[C@H]1C(=O)O[C@H](c3ccccc3Br)[C@H]12
IC50 [1]: > 50 µM
IC50 [2]: > 50 µM
IC50 [3]: > 50 µM
IC50 (A549): > 50 µM

CO[C@@]12[C@H](COC(N)=O)C3=C(C(=O)C(C)=C(N)C3=O)N1C[C@@H]1N[C@@H]12 [MITOMYCIN]
IC50 [1]: 0.5 µM
IC50 [2]: 0.2 µM

COc1ccccc1[C@H]1C(=O)[C@@H]2C=C3C(C)(C)CCC[C@]3(C)[C@H]12
Activity (CHO [4]): 1.1%
Activity (PC-3 [5]): Active
IC50 [1]: 10 µM
Activity [6]: 74.1%
Activity (CHO [7]): 37.6%
IC50 [2]: 8 µM
Activity (PC-3 [8]): Active
Activity [9]: 56.6%
Activity (PC-3 [10]): Active
Activity (PC-3 [11]): Active
Activity (PC-3 [12]): Active
Activity [13]: Dose-dependent effect
IC50 [3]: 12 µM
Activity (PC-3 [14]): Active
viability at 24 h, 10 µM [15]: 54.5%
Activity (CHO [16]): 6.9%
Activity (PC-3 [17]): Active
Activity (PC-3 [18]): Dose-dependent effect
Activity [19]: 45.2%
Activity (PC-3 [20]): Active
Activity (PC-3 [21]): Dose-dependent effect
IC50 (A549): 10 µM

COc1cccc2c1C(=O)c1c(O)c3c(c(O)c1C2=O)C[C@@](O)(C(=O)CO)C[C@@H]3O[C@H]1C[C@H](N)[C@H](O)[C@H](C)O1 [DOXORUBICIN HYDROCHLORIDE]
IC50 [3]: 0.01 µM

COc1ccccc1[C@H]1OC(=O)[C@@H]2C=C3C(C)(C)CCC[C@]3(C)[C@H]12
Activity (CHO [4]): 0.8%
Activity (PC-3 [5]): Active
IC50 [1]: > 50 µM
Activity [6]: 77.5%
Activity (CHO [7]): 36.2%
IC50 [2]: 10 µM
Activity (PC-3 [8]): Active
Activity [9]: 68.1%
Activity (PC-3 [10]): Active
Activity (PC-3 [11]): Active
Activity (PC-3 [12]): Active
IC50 [3]: 15 µM
Activity (PC-3 [14]): Active
viability at 24 h, 10 µM [15]: 56.8%
Activity (CHO [16]): 6.1%
Activity (PC-3 [17]): Active
Activity (PC-3 [18]): Dose-dependent effect
Activity [19]: 59.8%
Activity (PC-3 [20]): Active
Activity (PC-3 [21]): Dose-dependent effect
IC50 (A549): 18 µM

Cc1ccccc1[C@H]1C(=O)[C@@H]2C=C3C(C)(C)CCC[C@]3(C)[C@H]12
IC50 [1]: > 50 µM
IC50 [2]: > 50 µM
IC50 [3]: > 50 µM
IC50 (A549): 28 µM

Cc1ccccc1[C@H]1OC(=O)[C@@H]2C=C3C(C)(C)CCC[C@]3(C)[C@H]12
IC50 [1]: > 50 µM
IC50 [2]: 21 µM
IC50 [3]: > 50 µM
IC50 (A549): 23 µM

CC1(C)CCC[C@@]2(C)C1=C[C@H]1C(=O)[C@H](c3ccccc3Br)[C@H]12
IC50 [1]: 10 µM
IC50 [2]: > 50 µM
IC50 [3]: 19 µM
IC50 (A549): 28 µM

CC1(C)CCC[C@@]2(C)C1=C[C@H]1C(=O)[C@H](c3ccccc3F)[C@H]12
IC50 [1]: 18 µM
IC50 [2]: > 50 µM
IC50 [3]: 17 µM
IC50 (A549): 36 µM

CC1(C)CCC[C@@]2(C)C1=C[C@H]1C(=O)[C@H](c3ccc(Cl)c(Cl)c3)[C@H]12
IC50 [1]: > 50 µM
IC50 [2]: > 50 µM
IC50 [3]: 38 µM
IC50 (A549): > 50 µM

CC[C@@]1(O)C(=O)OCc2c1cc1n(c2=O)Cc2cc3ccccc3nc2-1 [CAMPTOTHECIN]
Activity (CHO [4]): 1.2%
Activity (CHO [7]): 21.6%
viability at 24 h, 10 µM [15]: 74.8%
Activity (CHO [16]): 2.4%
Activity [22]: 60.9%

CC1(C)CCC[C@@]2(C)C1=C[C@H]1C(=O)O[C@H](c3ccc(Cl)c(Cl)c3)[C@H]12
IC50 [1]: > 50 µM
IC50 [2]: 12 µM
IC50 [3]: 20 µM
IC50 (A549): > 50 µM

CC1(C)CCC[C@@]2(C)C1=C[C@H]1C(=O)[C@H](c3ccccc3Cl)[C@H]12
IC50 [1]: > 50 µM
IC50 [2]: > 50 µM
IC50 [3]: > 50 µM
IC50 (A549): 25 µM

From ChEMBL document CHEMBL3763098, “Induction of apoptosis by cyclobutanones and derived polycyclic -lactones: a preliminary analysis of antiproliferative activity” (Medchemcomm, 2015)
